Here are results for twelve compounds from paper PMC10537604, “Development and Assessment of 1,5–Diarylpyrazole/Oxime Hybrids Targeting EGFR and JNK–2 as Antiproliferative Agents: A Comprehensive Study through Synthesis, Molecular Docking, and Evaluation” (Molecules, 2023).

Data set [1] concerns human colorectal adenocarcinoma cell line DLD-1. Put plainly: WST-8 antiproliferative assay, DLD-1. It counts as cell-based. The following applies: DLD-1, 100 µM, WST-8 assay, read-out: Growth Inhibition (GI%) DLD-1. Here is the method: (§1) Compounds 7a–j, 8a–j, 9a–c, and 10a–c were evaluated for in vitro anticancer activities against five different cancer cell lines, namely, human colorectal adenocarcinoma cell lines DLD-1, human cervical cancer cell line Hela, human pancreatic cancer cell line SUIT-2, human myelogenous leukemia cell line K562, and human hepatocellular carcinoma cell line HepG2 using WST-8 assay at concentrations of 100 µM to investigate the growth inhibition percent (GI%) of each compound using daunorubicin as a reference drug. […]. […] So, as a conclusion on the SAR study of those compounds as antiproliferative agents, the oxime moiety potentiated the anticancer activity and electron donating groups on R1 and R2 played an important role on this activity. Moreover, the sulfamoyl moiety on R3 seems to play a potential role in the activity of the prepared compounds (Table 1).
(§2) All selected compounds and daunorubicin were recorded as the minimum concentration required to inhibit half cell growth (IC50) and the results are listed in Table 2.
(§3) Evaluation of anticancer activity was performed according to the standard water-soluble tetrazolium-8 (WST-8) assay at the Faculty of Engineering, Yamagata University, Yonezawa, Japan, using an MTP-310 absorbance microplate reader. The EGFR inhibitory assay was carried out at the Faculty of Engineering, Yamagata University, Yonezawa, Japan, according to the protocol enzyme linked immunosorbent assay (ELISA) kits (Douset sandwich ELISA test, recombinant mouse EGFR). The JNK-2 inhibitory assay was performed at the Faculty of Engineering, Yamagata University, Yonezawa, Japan, according to the protocol of enzyme-linked immunosorbent assay (ELISA), the assay was carried out using the JNK-2 kit (Simple Step ELISA, pT183/Y185, Abcam Company, Cambridge, CB2 0AX, UK). Apoptosis and cell cycle analysis was performed at Faculty of medicine, Yamagata University, Yamagata, Japan, using BD FACS melody. Molecular docking was performed at the Nano Medical Engineering Laboratory, RIKEN Cluster for Pioneering Researchers, RIEKN, Japan, using ICM-Pro 3.8 software (MolSoft L.L.C., San Diego, CA, USA).
(§4) According to the standard water-soluble tetrazolium-8 (WST-8) assay, the current synthesized compounds have been tested for their anticancer activities against different five cancer cell lines; DLD-1, Hela, K562, SUIT-2, and HepG2 and daunorubicin was used as reference drug by the WST-8 assay. The five cells were maintained in a suspension culture, (Dulbecco’s modified eagle medium (DMEM) for SUIT-2, Hela, and HepG2 or PRIM for K562 and DLD), supplemented with 5% FBS (Fetal Bovine Serum) containing 1% of a penicillin-streptomycin (1:1) mixture. A 100 μL aliquot of cells (10,000 cells/mL) was added to a 96 well plate and incubated for 24 h at 37 °C in a humidified incubator containing 5% CO2 in the air. After 24 h, a 10 μL aliquot of test compound (concentrations varying in the range of 10–150 µM) was added to each of the 96 wells and incubated for 24 h. Then A 10 μL WST-8 solution (mixture of WST-8 and 1-methoxy PMS) was added to each well and the incubation continued for 3 h. The visible absorbance at 450 nm and 630 nm as the reference wavelength of each well was quantified using an MTP-310 absorbance microplate reader. Daunorubicin was used as a positive control. The results of cytotoxicity were recorded as growth inhibition percentages and as IC50 values.

The subject of data set [2] is human myelogenous leukemia cell line K562. Description: WST-8 antiproliferative assay, K562. Format: cell-based. Conditions: Homo sapiens, K562, WST-8 assay; for inhibition at 100 µM: read-out: Growth Inhibition (GI%) K562. How it is done:
as §1, §2, §3
as §4, with “After 24 h, a 10 μL aliquot of test compound (concentrations varying in the range of 10–150 µM) was added to each of the 96 wells and incubated for 24 h.” left out
For orientation: Tetrazolium dyes change colour on reduction, which living cells bring about.

For data set [3], the system named is human hepatocellular carcinoma cell line HepG2. Description: WST-8 antiproliferative assay, HepG2. It counts as cell-based. The following applies: HepG2, 100 µM, WST-8 assay, read-out: Growth Inhibition (GI%) HepG2. Here is the method:
as §1, §2, §3, §4

Data set [4] has as its system human cervical cancer cell line Hela. Put plainly: WST-8 antiproliferative assay, Hela. It counts as cell-based. The following applies: WST-8 assay; for inhibition at 100 µM: read-out: Growth Inhibition (GI%) Hela. How it is done: as §1, §2, §3
as §4, with “After 24 h, a 10 μL aliquot of test compound (concentrations varying in the range of 10–150 µM) was added to each of the 96 wells and incubated for 24 h.” left out

Data set [5] has as its system human pancreatic cancer cell line SUIT-2. Put plainly: WST-8 antiproliferative assay, SUIT-2. It counts as cell-based. The following applies: SUIT-2, 100 µM, WST-8 assay, read-out: Growth Inhibition (GI%) SUIT-2. How it is done:
as §1, §2, §3, §4

The test system is the same in data set [6]. Description: WST-8 antiproliferative assay, SUIT-2. Format: cell-based. Conditions: WST-8 assay, six concentrations 1-100 µM.

Take `COc1cc(C(C)=O)ccc1OC(=O)c1cc(-c2ccccc2)n(-c2ccccc2)n1` [Compound 7a, 4–Acetyl–2–methoxyphenyl 1,5–diphenyl–1H–pyrazole–3–carboxylate]: the melting point (usually the temperature, or range, at which the solid turns liquid) was 98 to 100 °C. In addition, in data set [1], the inhibition (in general, the relative decrease from the control value, in per cent) at 100 µM came to 0%. The inhibition at 100 µM in data set [2] was 0%. Further, the inhibition at 100 µM in data set [3] turned out to be 5%. In addition, the inhibition at 100 µM in data set [4] amounted to 55%. Also, the inhibition at 100 µM in data set [5] was determined as 101%.

Turning to `COc1ccc(-c2cc(C(=O)Oc3ccc(C(C)=O)cc3OC)nn2-c2ccccc2)cc1` [Compound 7c, 4–Acetyl–2–methoxyphenyl–5–(4–methoxyphenyl) 1–phenyl–1H–pyrazole–3–carboxylate], the melting point fell in the range of 69 to 71 °C. For the same compound, the inhibition at 100 µM in data set [1] stood at 0%. For the same compound, the inhibition at 100 µM in data set [2] is 48%. In addition, the inhibition at 100 µM in data set [3] was found to be 0%. In data set [4], the inhibition at 100 µM was 52%. Moreover, the inhibition at 100 µM in data set [5] was 68%.

On to `COc1ccc(-c2cc(C(=O)Oc3ccc(C(C)=O)cc3OC)nn2-c2ccccc2)cc1OC` [Compound 7e, 4–Acetyl–2–methoxyphenyl–5–(3,4–dimethoxyphenyl) 1–phenyl–1H–pyrazole–3–carboxylate], for which the melting point was in the range of 74 to 76 °C. For the same compound, in data set [1], the inhibition at 100 µM was determined as 59.4%. Further, the inhibition at 100 µM in data set [2] amounted to 0%. Also, the inhibition at 100 µM in data set [3] was found to be 14%. Further, the inhibition at 100 µM in data set [4] amounted to 73%. The inhibition at 100 µM in data set [5] was 101%.

Consider `CC(=O)c1ccc(NC(=O)c2cc(-c3ccccc3)n(-c3ccc(S(N)(=O)=O)cc3)n2)cc1` [Compound 9a, N–(4–Acetylphenyl)–5–phenyl–1–(4–sulfamoylphenyl)–1H–pyrazole–3–carboxamide], for which the melting point lay in the range of 81 to 83 °C. In addition, the inhibition at 100 µM in data set [1] was 60.7%. In addition, the inhibition at 100 µM in data set [2] was 66%. The inhibition at 100 µM in data set [3] was 36%. Moreover, the inhibition at 100 µM in data set [4] was determined as 9%. The inhibition at 100 µM in data set [5] was determined as 60%.

As for `COc1ccc(-c2cc(C(=O)Oc3ccc(C(C)=O)cc3OC)nn2-c2ccc(S(N)(=O)=O)cc2)cc1` [Compound 7h, 4–Acetyl–2–methoxyphenyl 5–(4–methoxyphenyl) 1–(4–sulfamoylphenyl)–1H–pyrazole–3–carboxylate], the melting point fell in the range of 80 to 83 °C. For the same compound, the inhibition at 100 µM in data set [1] stood at 0%. In addition, the inhibition at 100 µM in data set [2] amounted to 0%. Moreover, the inhibition at 100 µM in data set [3] came out at 0%. The inhibition at 100 µM in data set [4] came to 0%. Also, the inhibition at 100 µM in data set [5] is 73%.

Take `COc1cc(C(C)=O)ccc1OC(=O)c1cc(-c2ccccc2)n(-c2ccc(S(N)(=O)=O)cc2)n1` [Compound 7f, 4–Acetyl–2–methoxyphenyl–5–phenyl 1–(4–sulfamoylphenyl)–1H–pyrazole–3–carboxylate]: the melting point is 69 to 72 °C. The inhibition at 100 µM in data set [1] was 18.6%. Also, the inhibition at 100 µM in data set [2] was 24%. Moreover, in data set [3], the inhibition at 100 µM is 10%. Besides, the inhibition at 100 µM in data set [4] worked out at 16%. The inhibition at 100 µM in data set [5] stood at 75%.

`COc1ccc(-c2cc(C(=O)Nc3ccc(C(C)=O)cc3)nn2-c2ccc(S(N)(=O)=O)cc2)cc1` [Compound 9b, N–(4–Acetylphenyl)–5–(4–methoxyphenyl)–1–(4–sulfamoylphenyl)–1H–pyrazole–3–carboxamide]: the melting point was in the range of 74 to 76 °C. In addition, the inhibition at 100 µM in data set [1] is 42.1%. For the same compound, the inhibition at 100 µM in data set [2] is 31%. Moreover, the inhibition at 100 µM in data set [3] was 19%. In addition, the inhibition at 100 µM in data set [4] is 0%. Further, the inhibition at 100 µM in data set [5] worked out at 45%.

`COc1ccc(-c2cc(C(=O)Oc3ccc(/C(C)=N/O)cc3OC)nn2-c2ccccc2)cc1` [Compound 8c, (E)–4–(1–(Hydroxyimino)ethyl)–2–methoxyphenyl 5–(4–methoxyphenyl) 1–phenyl–1H–pyrazole–3–carboxylate]: the melting point lay within 132 to 135 °C. The inhibition at 100 µM in data set [1] was 0%. In data set [2], the inhibition at 100 µM turned out to be 67%. Moreover, the inhibition at 100 µM in data set [3] was determined as 51%. Further, the inhibition at 100 µM in data set [4] came out at 78%. Moreover, in data set [5], the inhibition at 100 µM amounted to 61%.

`COc1ccc(-c2cc(C(=O)Oc3ccc(/C(C)=N/O)cc3OC)nn2-c2ccc(S(N)(=O)=O)cc2)cc1OC` [Compound 8j, (E)–4–(1–(Hydroxyimino)ethyl)–2–methoxyphenyl 5–(3,4–dimethoxyphenyl)–1–(4–sulfamoylphenyl)–1H–pyrazole–3–carboxylate] had a melting point of 129 to 131 °C. In data set [1], the inhibition at 100 µM was found to be 9.6%. Also, in data set [2], the inhibition at 100 µM is 34%. Further, in data set [3], the inhibition at 100 µM was found to be 60%. In data set [4], the inhibition at 100 µM is 53%. Besides, the inhibition at 100 µM in data set [5] was 79%.

`COc1ccc(-c2cc(C(=O)Nc3ccc(C(C)=O)cc3)nn2-c2ccc(S(N)(=O)=O)cc2)cc1OC` [Compound 9c, N–(4–Acetylphenyl)–5–(3,4–dimethoxyphenyl)–1–(4–sulfamoylphenyl)–1H–pyrazole–3–carboxamide] came in with a melting point of 81 to 83 °C. In addition, the inhibition at 100 µM in data set [1] is 16.8%. In addition, the inhibition at 100 µM in data set [2] turned out to be 57%. In addition, in data set [3], the inhibition at 100 µM worked out at 22%. Also, in data set [4], the inhibition at 100 µM was 9%. Moreover, the inhibition at 100 µM in data set [5] stood at 42%.

`COc1cc(C(C)=O)ccc1OC(=O)c1cc(-c2ccc(Cl)cc2)n(-c2ccc(S(N)(=O)=O)cc2)n1` [Compound 7i, 4–Acetyl–2–methoxyphenyl–5–(4–chlorophenyl) 1–(4–sulfamoylphenyl)–1H–pyrazole–3–carboxylate] returned a melting point of 71 to 74 °C. For the same compound, the inhibition at 100 µM in data set [1] stood at 46%. Besides, in data set [2], the inhibition at 100 µM amounted to 101%. For the same compound, in data set [2] (six concentrations 1-100 µM, read-out: IC50 K562), the IC50 (in general, the concentration at which inhibition is half-maximal) worked out at 93 µM. In addition, the inhibition at 100 µM in data set [3] was 63%. For the same compound, in data set [6], 92 µM corresponded to half-maximal inhibition (IC50). For the same compound, in data set [4], the inhibition at 100 µM came out at 101%. Moreover, in data set [4] (six concentrations 1-100 µM, read-out: IC50 Hela), the concentration for half-maximal inhibition (IC50) stood at 25 µM. For the same compound, the inhibition at 100 µM in data set [5] stood at 101%.

`COc1ccc(-c2cc(C(=O)Oc3ccc(C(C)=O)cc3OC)nn2-c2ccc(S(N)(=O)=O)cc2)cc1OC` [Compound 7j, 4–Acetyl–2–methoxyphenyl–5–(3,4–dimethoxyphenyl) 1–(4–sulfamoylphenyl)–1H–pyrazole–3–carboxylate] yielded a melting point of 75 to 78 °C. Further, the inhibition at 100 µM in data set [1] turned out to be 0.1%. Moreover, the inhibition at 100 µM in data set [2] was found to be 11%. The inhibition at 100 µM in data set [3] came to 0%. Besides, the inhibition at 100 µM in data set [4] was 10%. The inhibition at 100 µM in data set [5] came out at 81%.
